The results in this text go back to patent publication US7338959B2, “Diamino-pyrimidines and their use as angiogenesis inhibitors” (SmithKline Beecham Corporation, priority 2002, dated 2008).

For orientation: IC50 means the concentration needed to halve the response being measured.

Counter-ions that a name gives are not always drawn. A value given as a limit tells only on which side of the number the result lay.

One assay addresses T1, GST-VEGFR2 (Homo sapiens, UniProt P35968).
T1 construct: baculovirus expressed recombinant constructs of the intracellular domains of human TIE2 tagged by GST; made in house
Kind of assay: VEGF-R2 enzyme assay (VEGF-E), LANCE method. The assay is classed as biochemical. To be noted: GST-VEGFR2, 75 uM ATP, biotinylated peptide. An excerpt:
VEGF-R2 Enzyme Assay (VEGF-E)
The VEGF enzyme assay used the LANCE method (Wallac) and GST-VEGFR2, baculovirus expressed recombinant constructs of the intracellular domains of human TIE2 tagged by GST. The method measured the ability of the purified enzymes to catalyse the transfer of the γ-phosphate from ATP onto tyrosine residues in a biotinylated synthetic peptide, (biotin-aminohexyl-EEEEYFELVAKKKK-NH2). This peptide phosphorylation was detected using the following procedure: GST-VEGFR2 was incubated for 40-60 mins at room temperature with 75 uM ATP, 5 mM MgCl2, 0.1 mM DTT, 0.1 mg/mL BSA and the test compound (diluted from a 10 mM stock in DMSO for desired concentration) in 100 mM HEPES buffer. The reaction was stopped by the addition of EDTA (final concentration 50 mM). Streptavidin linked-APC (allophycocyanin, Molecular Probe) and Europium-labeled anti-phosphorylated tyrosine antibody (Wallac) were then added at the final concentration of 15 nM and 1 nM, respectively. The APC signal was measured using an ARVO multilabel counter (Wallac Berthold, Japan). The percent inhibition of activity was calculated relative to blank control wells. The concentration of test compound that inhibits 50% of activity (IC50) was interpolated using nonlinear regression (Levernberg-Marquardt) and the equation, y=Vmax (1−x/(K+x))+Y2, where “K” was equal to the IC50. The IC50 values were converted to pIC50 values, i.e., −log IC50 in Molar concentration.

In another assay the target is Recombinant GST-Tie2 (Homo sapiens, UniProt Q02763). As to the kind of experiment: Tie2 fluorescence polarization kinase activity assay (TIE2-FP). To be noted: activated Tie2, 200 μM ATP, peptide substrate. It counts as biochemical. As to the method:
Tie2 Fluorescence Polarization Kinase Activity Assay: (TIE2-FP)
Activation of Recombinant Tie2 Activation:
Recombinant GST-Tie2 was activated by incubating the enzyme in 20 mM Tris-HCl, pH 7.5, 12 mM MgCl2, 100 mM NaCl, 20 μM sodium vanidate, 1 mM DTT and 300 μM ATP at room temperature for 2 hours. The activation mixture was then passed through a NAP-25 desalting column (Pharmacia Biotech cat. no. 17-0852-02) to remove the free ATP. The activated enzyme was stored as aliquots at −80° C. in 20 mM Tris-HCl, pH 7.5 and 100 mM NaCl.
The final assay conditions were 50 mM HEPES, pH 7.5, 5% DMSO (when screening compounds), 200 μM ATP, 5 mM MgCl2, 1 mM DTT, 50 μM sodium vanidate, 1 nM activated enzyme, and 200 μM peptide. IC50's of compounds were measured under subsaturating ATP (200 μM) and varing concentrations of activated Tie2 and peptide substrate (RFWKYEFWR-OH; MW 1873 Da, TFA salt). Panvera Anti-phosphotyrosine antibody (Cat#P2840) and PTK Green Tracer (Cat#P2842) were used to detect the phosphorylated peptide. Polarization was measured on a TECAN Polarion in 138-second cycles for 30 minutes at room temperature. IC50's were then determined from the % polarization using normal calculation methods.

Sequence of Recombinant GST-Tie2 (Q02763 23-1124): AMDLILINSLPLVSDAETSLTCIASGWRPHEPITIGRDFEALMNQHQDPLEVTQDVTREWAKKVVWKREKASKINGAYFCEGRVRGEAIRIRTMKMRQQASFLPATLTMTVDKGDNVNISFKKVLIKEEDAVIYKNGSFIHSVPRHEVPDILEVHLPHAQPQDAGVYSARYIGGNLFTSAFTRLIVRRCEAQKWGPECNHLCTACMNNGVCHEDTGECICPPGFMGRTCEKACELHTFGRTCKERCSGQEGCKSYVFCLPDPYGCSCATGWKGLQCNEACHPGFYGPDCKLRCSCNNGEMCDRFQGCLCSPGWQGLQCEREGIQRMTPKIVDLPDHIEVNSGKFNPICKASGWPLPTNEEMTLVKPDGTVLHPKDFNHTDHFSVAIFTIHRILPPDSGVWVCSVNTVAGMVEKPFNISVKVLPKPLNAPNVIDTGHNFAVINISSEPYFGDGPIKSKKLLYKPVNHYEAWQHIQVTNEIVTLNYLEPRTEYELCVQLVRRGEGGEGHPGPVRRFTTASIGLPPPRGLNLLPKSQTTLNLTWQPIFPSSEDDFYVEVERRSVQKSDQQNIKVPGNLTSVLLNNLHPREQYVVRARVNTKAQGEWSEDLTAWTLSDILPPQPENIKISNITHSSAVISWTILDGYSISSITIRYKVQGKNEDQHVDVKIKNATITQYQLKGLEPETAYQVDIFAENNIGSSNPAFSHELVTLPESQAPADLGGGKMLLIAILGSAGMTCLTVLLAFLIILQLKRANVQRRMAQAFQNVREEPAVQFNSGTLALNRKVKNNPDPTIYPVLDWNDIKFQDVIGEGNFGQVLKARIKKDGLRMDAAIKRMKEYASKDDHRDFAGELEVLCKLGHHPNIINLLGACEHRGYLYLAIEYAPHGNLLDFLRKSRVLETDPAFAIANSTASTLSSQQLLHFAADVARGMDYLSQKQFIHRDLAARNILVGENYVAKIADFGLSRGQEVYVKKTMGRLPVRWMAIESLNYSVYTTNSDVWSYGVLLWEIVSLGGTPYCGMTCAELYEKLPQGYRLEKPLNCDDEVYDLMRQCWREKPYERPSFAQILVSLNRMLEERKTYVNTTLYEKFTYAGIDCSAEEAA
T1 sequence (P35968 786-1356 limits assumed): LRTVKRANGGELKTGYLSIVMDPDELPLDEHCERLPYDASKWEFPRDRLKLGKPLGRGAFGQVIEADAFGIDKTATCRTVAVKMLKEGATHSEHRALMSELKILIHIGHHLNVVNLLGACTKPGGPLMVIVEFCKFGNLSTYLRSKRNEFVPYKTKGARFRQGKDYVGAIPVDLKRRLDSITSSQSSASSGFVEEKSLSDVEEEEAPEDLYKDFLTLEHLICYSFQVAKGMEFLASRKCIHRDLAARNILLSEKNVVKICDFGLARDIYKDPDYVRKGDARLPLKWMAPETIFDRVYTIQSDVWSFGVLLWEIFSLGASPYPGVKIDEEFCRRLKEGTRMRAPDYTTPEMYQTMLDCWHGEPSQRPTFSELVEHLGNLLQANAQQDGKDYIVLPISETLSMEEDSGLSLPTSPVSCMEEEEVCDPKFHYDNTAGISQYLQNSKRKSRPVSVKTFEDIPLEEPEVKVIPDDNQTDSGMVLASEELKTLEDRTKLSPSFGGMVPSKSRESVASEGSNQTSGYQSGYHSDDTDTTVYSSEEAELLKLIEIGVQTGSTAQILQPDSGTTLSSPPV

With `CC(C)Nc1nc2cc(N(C)c3ccnc(Nc4cccc(OS(C)(=O)=O)c4)n3)ccc2n1C` [Example 92, hydrochloride], the IC50 fell in the range of 100 to 1000 nM against GST-VEGFR2 and 1000 to 10000 nM at Recombinant GST-Tie2.

Regarding `Cc1ccc(Nc2nccc(N(C)c3ccc4c(c3)nc(NCCc3ccccc3)n4C)n2)cc1S(N)(=O)=O` [Example 95, 2-Methyl-5-{4-[methyl-(1-methyl-2-phenethylamino-1H-benzoimidazol-5-yl)-amino]-pyrimidin-2-ylamino}-benzenesulfonamide hydrochloride], the results for the 50% inhibitory concentration (IC50) at GST-VEGFR2 and on Recombinant GST-Tie2 were less than 100 nM and 100 to 1000 nM, respectively.

In the case of `CN(c1ccc2c(c1)nc(Nc1ccc(C(F)(F)F)cc1)n2C)c1ccnc(Nc2ccc(CS(C)(=O)=O)cc2)n1` [Example 110, N^1-Methyl-N^5-[2-(4-Methanesulfonymethyl-phenylamino)-pyrimidin-4-yl]-N^5-methyl-N^2-(4-trifluoromethyl-phenyl)-1H-benzoimidazole-2,5-diamine], the IC50 at GST-VEGFR2 and at Recombinant GST-Tie2 was less than 100 nM in each case.

In the case of `CN(c1ccc2c(c1)nc(Nc1ccc(Cl)cc1)n2C)c1ccnc(Nc2ccc(CS(C)(=O)=O)cc2)n1` [Example 112], the IC50 at GST-VEGFR2 and on Recombinant GST-Tie2 was less than 100 nM throughout.

Regarding `CN(c1ccc2c(c1)nc(Nc1cccc(F)c1)n2C)c1ccnc(Nc2ccc(CS(C)(=O)=O)cc2)n1` [Example 118], the figures for the half-maximal inhibitory concentration (IC50) against GST-VEGFR2 and at Recombinant GST-Tie2 were less than 100 nM and 100 to 1000 nM, respectively.

On to `CN(c1ccc2c(c1)nc(Nc1ccccc1F)n2C)c1ccnc(Nc2ccc(CS(C)(=O)=O)cc2)n1` [Example 124], for which the IC50 against GST-VEGFR2 is less than 100 nM; on Recombinant GST-Tie2 it was 100 to 1000 nM.

On to `CN(c1ccc2c(c1)nc(Nc1cc(C(F)(F)F)ccc1F)n2C)c1ccnc(Nc2ccc(CS(C)(=O)=O)cc2)n1` [Example 125], for which the IC50 against GST-VEGFR2 and on Recombinant GST-Tie2 was less than 100 nM throughout.

For `Cn1c(Nc2cc(C(C)(C)C)on2)nc2cc(Nc3ccnc(Nc4ccc(CS(C)(=O)=O)cc4)n3)ccc21.O=C(O)C(F)(F)F` [Example 135, N^2-(5-tert-Butyl-isoxazol-3-yl)-N^5-[2-(4-methanesulfonylmethyl-phenylamino)-pyrimidin-4-yl]-1-methyl-1-1H-benzoimidazole-2,5-diamine trifluoroacetate], the VEGF-E result at GST-VEGFR2 is “+++ (+++ = pIC50 of >7.0)”. Further, the TIE2-FP result on Recombinant GST-Tie2 was “+ (+ = pIC50 of 5.0-6.0)”.

As for `Cn1c(Nc2cc(C(C)(C)C)on2)nc2cc(Nc3ccnc(Nc4cccc(CS(C)(=O)=O)c4)n3)ccc21` [Example 136, N^2-(5-tert-Butyl-isoxazol-3-yl)-N^5-[2-(3-methanesulfonylmethyl-phenylamino)-pyrimidin-4-yl]-1-methyl-1H-benzoimidazole-2,5-diamine], the half-inhibitory concentration (IC50) is less than 100 nM on GST-VEGFR2 and 1000 to 10000 nM on Recombinant GST-Tie2.

`CN(c1ccc2c(c1)nc(NC(=O)Cc1cccs1)n2C)c1ccnc(Nc2ccc(CS(C)(=O)=O)cc2)n1` [Example 153]: the results for the 50% inhibitory concentration (IC50) against GST-VEGFR2 and at Recombinant GST-Tie2 were less than 100 nM and 1000 to 10000 nM, respectively.

On to `CN(c1ccc2c(c1)nc(NC(=O)Cc1cccc(SC(F)(F)F)c1)n2C)c1ccnc(Nc2cccc(CS(C)(=O)=O)c2)n1` [Example 162, N-(5-{[2-(3-Methanesulfonylmethyl-phenylamino)-pyrimidin-4-yl]-methyl-amino}-1-methyl-1H-benzoimidazol-2-yl)-2-(3-trifluoromethylsulfanyl-phenyl)-acetamide], for which the concentration for half-maximal inhibition (IC50) against GST-VEGFR2 was less than 100 nM; at Recombinant GST-Tie2, 1000 to 10000 nM.

Regarding `CN(c1ccc2c(c1)nc(NC(=O)Cc1cccs1)n2C)c1ccnc(Nc2cccc(CS(C)(=O)=O)c2)n1` [Example 169, N-({[2-(3-Methanesulfonylmethyl-phenylamino)-pyrimidin-4-yl]-methyl-amino}-methyl-1H-benzoimidazol-2-yl)-C-thiophen-2-yl-acetamide], the IC50 on GST-VEGFR2 was less than 100 nM; on Recombinant GST-Tie2, 1000 to 10000 nM.

As for `Cc1cc(CC(=O)Nc2nc3cc(N(C)c4ccnc(Nc5ccc(CS(C)(=O)=O)cc5)n4)ccc3n2C)on1` [Example 173, N-({[2-(4-Methanesulfonylmethyl-phenylamino)-pyrimidin-4-yl]-methyl-amino}-methyl-1H-benzoimidazol-2-yl)-2-(3-methyl-isoxazol-5-yl)-acetamide], the VEGF-E result at GST-VEGFR2 is “+++ (+++ = pIC50 of >7.0)”. Also, the TIE2-FP result at Recombinant GST-Tie2 was “+ (+ = pIC50 of 5.0-6.0)”.

As to `CN(c1ccc2c(c1)nc(NC(=O)C1(c3ccccc3)CC1)n2C)c1ccnc(Nc2ccc(CS(C)(=O)=O)cc2)n1` [Example 203, Phenylcyclopropanecarboxylic acid ({[2-(4-methanesulfonylmethyl-phenylamino)-pyrimidin-4-yl]-methyl-amino}-methyl-1H-benzoimidazol-2-yl)-amide], the IC50 at GST-VEGFR2 and on Recombinant GST-Tie2 was less than 100 nM each time.

With `CN(c1ccc2c(c1)nc(NC(=O)C1(c3cc(F)ccc3F)CC1)n2C)c1ccnc(Nc2ccc(CS(C)(=O)=O)cc2)n1` [Example 204, 1-(2,5-Difluoro-phenyl)-cyclopropanecarboxylic acid ({[2-(4-methanesulfonylmethyl-phenylamino)-pyrimidin-4-yl]-methyl-amino}-methyl-1H-benzoimidazol-2-yl)-amide], the values for the IC50 at GST-VEGFR2 and on Recombinant GST-Tie2 were 100 to 1000 nM and 1000 to 10000 nM, respectively.

Take `CN(c1ccc2c(c1)nc(NC(=O)Cc1ccc(F)cc1)n2C)c1ccnc(Nc2ccc(CS(C)(=O)=O)cc2)n1` [Example 206, 2-(4-Fluoro-phenyl)-N-({[2-(4-methanesulfonylmethyl-phenylamino)-pyrimidin-4-yl]-methyl-amino}-methyl-1H-benzoimidazol-2-yl)-acetamide]: the results for the IC50 at GST-VEGFR2 and at Recombinant GST-Tie2 were less than 100 nM and 1000 to 10000 nM, respectively.

For `CN(c1ccc2c(c1)nc(NC(=O)Cc1cccc(F)c1F)n2C)c1ccnc(Nc2ccc(CS(C)(=O)=O)cc2)n1` [Example 226, (2,3-Difluorophenyl)-N-({[2-(4-methanesulfonylmethyl-phenylamino)-pyrimidin-4-yl]-methyl-amino}-methyl-1H-benzoimidazol-2-yl)-acetamide], the 50% inhibitory concentration (IC50) against GST-VEGFR2 was less than 100 nM; on Recombinant GST-Tie2, 1000 to 10000 nM.

For the compound `CN(c1ccc2c(c1)nc(NC(=O)C1(c3ccc(Cl)c(Cl)c3)CC1)n2C)c1ccnc(Nc2cccc(CS(C)(=O)=O)c2)n1` [Example 229, 1-(3,4-Dichloro-phenyl)-cyclopropanecarboxylic acid ({[2-(3-methanesulfonylmethyl-phenylamino)-pyrimidin-4-yl]-methyl-amino}-methyl-1H-benzoimidazol-2-yl)-amide], the IC50 on GST-VEGFR2 lay in the range of 100 to 1000 nM; on Recombinant GST-Tie2 it was 1000 to 10000 nM.

In the case of `CN(c1ccc2c(c1)nc(NC(=O)Cc1ccccc1Cl)n2C)c1ccnc(Nc2ccc(CS(C)(=O)=O)cc2)n1` [Example 230, 2-(2-Chlorophenyl)-N-({[2-(4-methanesulfonylmethyl-phenylamino)-pyrimidin-4-yl]-methyl-amino}-methyl-1H-benzoimidazol-2-yl)-acetamide], the values for the IC50 on GST-VEGFR2 and at Recombinant GST-Tie2 were less than 100 nM and 1000 to 10000 nM, respectively.

With “(3,5-Bis-trifluoromethyl-phenyl)-N-({[2-(3-methanesulfonylmethyl-phenylamino]-pyrimidin-4-yl]-methyl-amino}-methyl-1H-benzoimidazol-2-yl)-acetamide [Example 161]”, the VEGF-E result on GST-VEGFR2 is “++ (++ = pIC50 of 6.0-7.0)”. The TIE2-FP result at Recombinant GST-Tie2 is given as “+ (+ = pIC50 of 5.0-6.0)”.

In the case of “N-({[2-(4-Methanesulfonylmethyl-phenylamino)-pyrimidin-4-yl]-methyl-amino}-methyl-1H-benzoimidazol-2-yl)-dimethyl-butyramide [Example 177]”, at GST-VEGFR2, the VEGF-E entry is “+++ (+++ = pIC50 of >7.0)”. Further, the TIE2-FP result at Recombinant GST-Tie2 is listed as “+ (+ = pIC50 of 5.0-6.0)”.

“Thiophene-2-carboxylic acid ({[2-(3-methanesulfonylmethyl-phenylamino)-pyrimidin-4-yl]-methyl-amino}-methyl-1H-benzoimidazol-2-yl)-amide [Example 167]”: at GST-VEGFR2, the VEGF-E result is “+++ (+++ = pIC50 of >7.0)”. For the same compound, on Recombinant GST-Tie2, the TIE2-FP result is “+ (+ = pIC50 of 5.0-6.0)”.
